Assay results taken from patent publication EP4703359A1 (Shanghai Simr Biotechnology Co., Ltd., priority 2023, dated 2024).

Biological target: T1, α2-GABAA receptor (Homo sapiens, UniProt P18507+P47869)
T1 construct: expressed in transfected cells
Experiment: Whole-cell patch-clamp electrophysiology, positive allosteric modulatory activity in α2-GABAAR-HEK293 cells
Type: cell-based
Settings: compound 100 nM, GABA 0.10 to 0.11 µM (approximately EC7-8), normalized to reference compound CVL-865 (= 100%); for Emax at 0.1 µM: read-out: α2-GABAAR Positive allosteric modulatory activity
Description: The α subunit, β subunit, and γ subunit are indispensable for forming a fully functional GABAA receptor. In this example, HEK293 cells stably expressing α2-GABAA receptors (α2-GABAAR) were constructed and screened respectively via liposome transfection (Felgner, P.L., et al. Proceedings of the National Academy of Sciences, 1987, 84: 7413-7417). The α2-GABAAR-HEK293 cell model co-expresses the α2 subunit (protein sequence referenced under GenBank accession number: NM_000807.4), β3 subunit (protein sequence referenced under GenBank accession number: NM_000814.5), and γ2 subunit (protein sequence referenced under GenBank accession number: NM_000816.3).
The above cell lines were subcultured. α2-GABAAR-HEK293 cells were amplified for testing the affinity of compounds to the benzodiazepine (BZD) site of GABAA receptors. Some of the α2-GABAAR-HEK293 cells in suspension during subculturing were plated on glass slides pre-treated with Poly-D-Lysine for electrophysiological testing (method reference: Patent CN 107344936 A, paragraph 0586).
The positive modulatory activity of the test drug on the α2-GABAA receptor was assessed using electrophysiological methods. The specific approach is as follows:
With regards to the concentration of the compound, the final concentration of all compounds used in the screening was 100 nM. For cell lines expressing α2-GABAA receptors, the GABA concentration was 0.10 to 0.11 µM (approximately EC7-8). Electrophysiological experiments were conducted using the whole-cell patch-clamp technique, which can be referenced to the method reported in the literature (Nickolls, S. A., et al. *British Journal of Pharmacology*, 2018, 175: 708-725). The composition of the extracellular solution (ECS) for electrophysiology was as follows: 150 mM NaCl, 5 mM KCl, 2.5 mM CaCl2, 1 mM MgCl2, 10 mM HEPES, and 10 mM glucose (pH 7.4). The intracellular solution (ICS) for electrophysiology was formulated as follows: 140 mM CsCl, 11 mM EGTA, 10 mM HEPES, 2 mM CaCl2, 1 mM MgCl2, 4 mM MgATP, and 2 mM TEA (pH 7.3). GABA (γ-aminobutyric acid) powder was dissolved in pure water to prepare a stock solution, which was subsequently diluted in ECS. The compound was initially dissolved in dimethyl sulfoxide to prepare a 4 mM stock solution, followed by stepwise dilution into GABA-ECS at corresponding concentrations. All solutions were freshly prepared prior to electrophysiological testing.
Electrophysiological signals were acquired using an EPC 10 amplifier and PatchMaster software (HEKA) or an Axon 700B amplifier and Clampex software (AXON). The recording electrode was pulled from borosilicate glass, with an electrode resistance of 4 to 6 MΩ. Extracellular administration was performed using the ALA-VC-8PG™ system. A single independently growing cell was selected. After forming a tight seal between the glass electrode and the cell membrane, the membrane was ruptured to establish the whole-cell configuration. The cell membrane potential was clamped at -60 mV and recorded in Gap-free mode. During the test, extracellular fluid was first applied externally for approximately 20 seconds. After the baseline (Iprebaseline) was stabilized, the extracellular solution was switched to GABA-ECS. At this point, the current induced by GABA (Igaba) can be detected. After approximately 10 to 20 seconds, once the current had stabilized, the extracellular solution was switched to a mixture of the compound and GABA-ECS until the current induced by both the compound and GABA (Itreatment) could be detected. Finally, the solution was switched to extracellular fluid, and the recording was terminated after 20 to 40 seconds. Only cells with a stable baseline, an absolute control current magnitude (Igaba - Iprebaseline) greater than 40 pA, and a relatively stable current within 10 to 20 seconds were used for compound testing. […]

T1 sequence (P47869 29-451): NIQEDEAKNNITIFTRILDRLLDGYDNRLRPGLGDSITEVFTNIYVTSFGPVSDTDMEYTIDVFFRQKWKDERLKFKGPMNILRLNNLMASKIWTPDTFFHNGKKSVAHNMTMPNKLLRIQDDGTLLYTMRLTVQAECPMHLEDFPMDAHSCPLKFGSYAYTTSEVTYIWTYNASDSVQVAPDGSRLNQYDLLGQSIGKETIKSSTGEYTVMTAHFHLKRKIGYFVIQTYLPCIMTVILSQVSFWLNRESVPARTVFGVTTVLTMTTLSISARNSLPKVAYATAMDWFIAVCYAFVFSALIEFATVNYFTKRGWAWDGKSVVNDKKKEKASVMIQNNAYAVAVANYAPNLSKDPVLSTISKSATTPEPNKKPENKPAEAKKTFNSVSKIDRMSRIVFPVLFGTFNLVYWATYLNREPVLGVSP
T1 sequence (P18507 40-467 isoform P18507-1 limits assumed): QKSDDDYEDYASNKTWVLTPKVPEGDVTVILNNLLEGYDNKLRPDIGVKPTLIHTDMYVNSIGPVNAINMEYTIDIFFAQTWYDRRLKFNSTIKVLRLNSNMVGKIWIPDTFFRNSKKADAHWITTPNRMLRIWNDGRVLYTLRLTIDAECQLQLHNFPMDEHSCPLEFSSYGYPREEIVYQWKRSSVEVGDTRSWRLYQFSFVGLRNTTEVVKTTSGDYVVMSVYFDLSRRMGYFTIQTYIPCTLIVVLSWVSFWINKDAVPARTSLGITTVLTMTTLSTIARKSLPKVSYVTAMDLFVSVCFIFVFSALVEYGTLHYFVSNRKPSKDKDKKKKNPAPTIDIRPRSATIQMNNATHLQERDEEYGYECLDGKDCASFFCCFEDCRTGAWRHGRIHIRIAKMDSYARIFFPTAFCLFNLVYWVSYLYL
T1 sequence (P28472 26-473 partner): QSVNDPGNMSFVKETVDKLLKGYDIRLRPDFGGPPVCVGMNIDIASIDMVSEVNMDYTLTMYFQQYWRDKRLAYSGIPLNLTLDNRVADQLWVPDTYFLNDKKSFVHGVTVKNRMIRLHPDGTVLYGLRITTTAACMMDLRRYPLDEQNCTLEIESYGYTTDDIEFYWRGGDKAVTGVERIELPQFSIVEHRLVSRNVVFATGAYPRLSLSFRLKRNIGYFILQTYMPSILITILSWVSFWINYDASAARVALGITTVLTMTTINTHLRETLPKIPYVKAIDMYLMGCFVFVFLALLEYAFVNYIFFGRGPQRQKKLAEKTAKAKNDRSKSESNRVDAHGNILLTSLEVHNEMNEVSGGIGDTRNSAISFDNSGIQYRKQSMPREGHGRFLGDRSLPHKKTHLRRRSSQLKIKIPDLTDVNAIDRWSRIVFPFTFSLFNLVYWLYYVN

Compound | Emax at 0.1 µM [%] | α2-GABAAR Positive allosteric modulatory activity [%]
COc1cccc(F)c1-c1cccn2c(N)c(C(=O)NCc3ccccn3)nc12 [Example 20, 3-Amino-8-(2-fluoro-6-methoxyphenyl)-N-(pyridin-2-methyl)imidazo[1,2-a]pyridine-2-carboxamide] | 35 | 
CCCNC(=O)c1nc2c(-c3c(OC)ccc4ccc(F)cc34)cccn2c1N [Example 107, 3-Amino-8-(7-fluoro-2-methoxynaphthalen-1-yl)-N-propylimidazo[1,2-a]pyridine-2-carboxamide] | 90 | 
CCNC(=O)c1nc2c(-c3c(F)cccc3OC)cccn2c1N [Example 2, 3-Amino-8-(2-fluoro-6-methoxyphenyl)-N-ethylimidazo[1,2-a]pyridine-2-carboxamide] | 35 | 
CCCNC(=O)c1nc2c(-c3c(F)cccc3OC)cc(F)cn2c1N [Example 155, 3-Amino-6-fluoro-8-(2-fluoro-6-methoxyphenyl)-N-propylimidazo[1,2-a]pyridine-2-carboxamide] | 56 | 
CC#Cc1cccc(-c2cccn3c(N)c(C(=O)NCCC)nc23)c1 [Example 40, 3-Amino-8-(3-(prop-1-yn-1-yl)phenyl)-N-propylimidazo[1,2-a]pyridine-2-carboxamide] | 25 | 
CCCNC(=O)c1nc2c(-c3cccc(C#N)c3)c(F)ccn2c1N [Example 126, 3-Amino-8-(3-cyanophenyl)-7-fluoro-N-propylimidazo[1,2-a]pyridine-2-carboxamide] | 99 | 
CCCNC(=O)c1nc2c(-c3ccnc(C#N)c3)cccn2c1N [Example 89, 3-Amino-8-(2-cyanopyridin-4-yl)-N-propylimidazo[1,2-a]pyridine-2-carboxamide] | 44 | 
COc1cccc(F)c1-c1c(F)ccn2c(N)c(C(=O)NCCC(F)(F)F)nc12 [Example 125, 3-Amino-7-fluoro-8-(2-fluoro-6-methoxyphenyl)-N-(3,3,3-trifluoropropyl)propylimidazo[1,2-a]pyridine-2-carboxamide] |  | 70
CCCNC(=O)c1nc2c(-c3cc4cn(C)nc4cc3OC)cccn2c1N [Example 96, 3-Amino-8-(6-methoxy-2-methyl-2H-indazol-5-yl)-N-propylimidazo[1,2-a]pyridine-2-carboxamide] | 52 | 
CCCNC(=O)c1nc2c(-c3cccc(/C(C)=N/OC)c3)cccn2c1N [Example 38, (E)-3-Amino-8-(3-(1-(methoxyimino)ethyl)phenyl)-N-propylimidazo[1,2-a]pyridine-2-carboxamide] | 50 | 
CCCNC(=O)c1nc2c(-c3cn4ccnc4cc3OC)cccn2c1N [Example 94, 3'-Amino-7-methoxy-N-propyl-[6,8'-diimidazo[1,2-a]pyridine]-2'-carboxamide] | 51 | 
CCCNC(=O)c1nc2c(-c3ccc(F)cc3OC)c(F)ccn2c1N [Example 121, 3-Amino-7-fluoro-8-(4-fluoro-2-methoxyphenyl)-N-propylimidazo[1,2-a]pyridine-2-carboxamide] | 88 | 
[2H]c1ccc(-c2c(F)cccc2OC)c2nc(C(=O)NCCC)c(N)n12 [Example 156, 3-amino-8-(2-fluoro-6-methoxyphenyl)-N-propylimidazo[1,2-a]pyridine-5-deuterium-2-carboxamide] |  | 100
CCCNC(=O)c1nc2c(-c3cc4oc(=O)n(C)c4cc3OC)cccn2c1N [Example 93, 3-Amino-8-(5-methoxy-3-methyl-2-oxo-2,3-dihydrobenzo[d]oxazol-6-yl)-N-propylimidazo[1,2-a]pyridine-2-carboxamide] | 62 | 
COc1cccc(F)c1-c1cccn2c(N)c(C(=O)NC34CC(C3)C4)nc12 [Example 11, 3-Amino-N-(bicyclo[1.1.1]pent-1-yl)-8-(2-fluoro-6-methoxyphenyl)imidazo[1,2-a]pyridine-2-carboxamide] | 27 | 
CCn1cnc2c(-c3ccc(F)c(-c4ccc(S(=O)(=O)CC)cc4OC)c3)cnnc21 [CVL-865, reference compound] | 100 | 

Compound | Emax at 0.1 µM [%] | α2-GABAAR Positive allosteric modulatory activity [%]
CCCNC(=O)c1nc2c(-c3cccnc3F)c(F)ccn2c1N [Example 112, 3-Amino-7-fluoro-8-(2-fluoropyridin-3-yl)-N-propylimidazo[1,2-a]pyridine-2-carboxamide] | 53 | 
CCCNC(=O)c1nc2c(-c3cc(F)cc(C#N)c3)c(F)ccn2c1N [Example 127] |  | 77
CCCNC(=O)c1nc2c(-c3cccnc3F)cccn2c1N [Example 90, 3-Amino-8-(2-fluoropyridin-3-yl)-N-propylimidazo[1,2-a]pyridine-2-carboxamide] | 60 | 
CCCNC(=O)c1nc2c(-c3cncc(C#N)c3)cccn2c1N [Example 88, 3-Amino-8-(5-cyanopyridin-3-yl)-N-propylimidazo[1,2-a]pyridine-2-carboxamide] | 63 | 
CCCNC(=O)c1nc2c(-c3cnc(OC)nc3OC)c(F)ccn2c1N [Example 120, 3-Amino-8-(2,4-dimethoxypyrimidin-5-yl)-7-fluoro-N-propylimidazo[1,2-a]pyridine-2-carboxamide] | 59 | 
[2H]c1ccn2c(N)c(C(=O)NCCC)nc2c1-c1c(F)cccc1OC [Example 150, 3-Amino-8-(2-fluoro-6-methoxyphenyl)-N-propylimidazo[1,2-a]pyridine-7-deuterio-2-carboxamide] | 85 | 
CC1CN(C(=O)c2nc3c(-c4c(F)ccc5ccoc45)cccn3c2N)C1 [Example 102, (3-Amino-8-(6-fluorobenzofuran-7-yl)imidazo[1,2-a]pyridin-2-yl)(3-methylazetidin-1-yl)methanone] | 44 | 
CCCNC(=O)c1nc2c(-c3c(F)ccc4ncoc34)cccn2c1N [Example 100, 3-Amino-8-(6-fluorobenzoxazol-7-yl)-N-propylimidazopyridine-2-carboxamide] | 94 | 
CCCNC(=O)c1nc2c(-c3c(F)cccc3OC(F)(F)F)cccn2c1N [Example 75, 3-Amino-8-(2-fluoro-6-(trifluoromethoxy)phenyl)-N-propylimidazo[1,2-a]pyridine-2-carboxamide] | 101 | 
CCCNC(=O)c1nc2c(-c3cc(F)c4ocnc4c3)cccn2c1N [Example 99] |  | 31
C=CCNC(=O)c1nc2c(-c3c(F)cccc3OC)cccn2c1N [Example 30, N-Allyl-3-amino-8-(2-fluoro-6-methoxyphenyl)imidazo[1,2-a]pyridine-2-carboxamide] | 81 | 
CCCNC(=O)c1nc2c(-c3cc(OC)ccc3OC)c(F)ccn2c1N [Example 111] | 77 | 
CCCNC(=O)c1nc2c(-c3cnoc3C)cccn2c1N [Example 141, 3-Amino-8-(5-methyl-1,2-oxazol-4-yl)-N-propylimidazo[1,2-a]pyridine-2-carboxamide] | 44 | 
CCCNC(=O)c1nc2c(CC(C)C)c(F)ccn2c1N [Example 119] |  | 33
CCCNC(=O)c1nc2c(-c3c(F)cccc3OC)c(C(F)F)ccn2c1N [Example 128, 3-Amino-7-(difluoromethyl)-8-(2-fluoro-6-methoxyphenyl)-N-propylimidazo[1,2-a]pyridine-2-carboxamide] | 49 | 
